From US11834453B2, “Substituted pyrimido[5,4-d]pyrimidines as HER2 inhibitors” (Array BioPharma Inc., priority 2020, dated 2023)

Experiments:
ErbB2 WT = ErbB2 WT (Homo sapiens (Human), UniProt P04626); test: ErbB enzyme assay (CisBio HTRF KinEASE-TK), Assay 2; format: biochemical
How it was run: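 Readout is HTRF KinEASE-TK, using Sa-XL665 and cryptate antibody for 1 h at 22 °C, as percent of control between DMSO-only (100) and pre-quenched (0) reactions. The kinase reaction runs 30 min at 22 °C with 1 mM ATP and 250 nM biotinylated TK substrate, in HEPES pH 7.4 with MgCl2 and 2% DMSO.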

EGFR wild type (EGFR WT) = EGFR wild type (EGFR WT) (Homo sapiens (Human), UniProt P00533); test: Cellular phosphorylation assay, EGF-stimulated EGFR phosphorylation in engineered NIH 3T3 cells, Phospho-EGFR DuoSet IC ELISA, Assay 5; format: cell-based
EGFR wild type (EGFR WT), sequence (P00533 25-1210): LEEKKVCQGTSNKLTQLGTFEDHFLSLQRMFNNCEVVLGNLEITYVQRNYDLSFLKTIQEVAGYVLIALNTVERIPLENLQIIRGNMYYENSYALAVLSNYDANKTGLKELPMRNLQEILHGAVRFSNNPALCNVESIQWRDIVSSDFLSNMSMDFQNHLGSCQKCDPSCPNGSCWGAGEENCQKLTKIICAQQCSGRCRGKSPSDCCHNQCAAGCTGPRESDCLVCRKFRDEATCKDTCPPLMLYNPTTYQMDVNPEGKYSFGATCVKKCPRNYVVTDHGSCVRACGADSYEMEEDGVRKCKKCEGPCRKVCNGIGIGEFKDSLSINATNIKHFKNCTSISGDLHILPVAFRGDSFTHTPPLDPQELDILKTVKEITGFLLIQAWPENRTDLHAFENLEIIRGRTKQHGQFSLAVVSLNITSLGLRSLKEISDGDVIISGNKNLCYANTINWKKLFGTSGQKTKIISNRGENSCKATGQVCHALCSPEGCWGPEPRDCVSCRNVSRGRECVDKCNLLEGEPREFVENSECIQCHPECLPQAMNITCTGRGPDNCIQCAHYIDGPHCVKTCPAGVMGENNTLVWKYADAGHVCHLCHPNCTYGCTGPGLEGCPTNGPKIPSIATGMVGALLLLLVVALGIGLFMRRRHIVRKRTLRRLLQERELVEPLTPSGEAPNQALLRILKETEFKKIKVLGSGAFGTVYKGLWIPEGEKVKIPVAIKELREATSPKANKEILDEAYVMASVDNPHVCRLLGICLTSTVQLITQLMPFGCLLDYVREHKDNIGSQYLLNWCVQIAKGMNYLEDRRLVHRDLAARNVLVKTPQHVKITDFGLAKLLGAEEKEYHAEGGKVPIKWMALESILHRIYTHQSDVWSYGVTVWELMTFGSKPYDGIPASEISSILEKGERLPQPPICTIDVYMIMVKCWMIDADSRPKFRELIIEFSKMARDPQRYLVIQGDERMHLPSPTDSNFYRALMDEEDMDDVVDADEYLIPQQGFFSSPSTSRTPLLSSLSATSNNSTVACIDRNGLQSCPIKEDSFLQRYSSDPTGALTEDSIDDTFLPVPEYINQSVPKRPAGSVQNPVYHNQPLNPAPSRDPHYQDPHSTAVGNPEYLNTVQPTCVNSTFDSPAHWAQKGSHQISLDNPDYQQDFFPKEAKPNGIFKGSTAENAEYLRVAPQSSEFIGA
How it was run: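 Phospho-EGFR ELISA on lysates of engineered NIH 3T3 EGFR WT cells, IC50 derived from concentration curves. Cells plated at 20,000/well overnight, given compound dilutions 1 h at 37 °C, then rEGF 100 ng/ml for a further 10 min before lysis.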

[1] = target: ErbB2 insYVMA (HER2-YVMA, SEQ ID NO: 2) (Homo sapiens, UniProt P04626, INS775YVMA/P1170A); test: biochemical; settings: ErbB2 insYVMA enzyme assay; read-out: Assay 1 IC50
[2] = target: ErbB2 with Exon 20 YVMA insertion (HER2-YVMA) (Homo sapiens (Human), UniProt P04626, INS775YVMA); test: Cellular phosphorylation assay, constitutive ErbB2 phosphorylation (Y1196) in engineered NIH 3T3 cells, Assay 4; format: cell-based
ErbB2 with Exon 20 YVMA insertion (HER2-YVMA), sequence (P04626 other isoform, or with tags, fused parts or gaps ins YVMA behind 775): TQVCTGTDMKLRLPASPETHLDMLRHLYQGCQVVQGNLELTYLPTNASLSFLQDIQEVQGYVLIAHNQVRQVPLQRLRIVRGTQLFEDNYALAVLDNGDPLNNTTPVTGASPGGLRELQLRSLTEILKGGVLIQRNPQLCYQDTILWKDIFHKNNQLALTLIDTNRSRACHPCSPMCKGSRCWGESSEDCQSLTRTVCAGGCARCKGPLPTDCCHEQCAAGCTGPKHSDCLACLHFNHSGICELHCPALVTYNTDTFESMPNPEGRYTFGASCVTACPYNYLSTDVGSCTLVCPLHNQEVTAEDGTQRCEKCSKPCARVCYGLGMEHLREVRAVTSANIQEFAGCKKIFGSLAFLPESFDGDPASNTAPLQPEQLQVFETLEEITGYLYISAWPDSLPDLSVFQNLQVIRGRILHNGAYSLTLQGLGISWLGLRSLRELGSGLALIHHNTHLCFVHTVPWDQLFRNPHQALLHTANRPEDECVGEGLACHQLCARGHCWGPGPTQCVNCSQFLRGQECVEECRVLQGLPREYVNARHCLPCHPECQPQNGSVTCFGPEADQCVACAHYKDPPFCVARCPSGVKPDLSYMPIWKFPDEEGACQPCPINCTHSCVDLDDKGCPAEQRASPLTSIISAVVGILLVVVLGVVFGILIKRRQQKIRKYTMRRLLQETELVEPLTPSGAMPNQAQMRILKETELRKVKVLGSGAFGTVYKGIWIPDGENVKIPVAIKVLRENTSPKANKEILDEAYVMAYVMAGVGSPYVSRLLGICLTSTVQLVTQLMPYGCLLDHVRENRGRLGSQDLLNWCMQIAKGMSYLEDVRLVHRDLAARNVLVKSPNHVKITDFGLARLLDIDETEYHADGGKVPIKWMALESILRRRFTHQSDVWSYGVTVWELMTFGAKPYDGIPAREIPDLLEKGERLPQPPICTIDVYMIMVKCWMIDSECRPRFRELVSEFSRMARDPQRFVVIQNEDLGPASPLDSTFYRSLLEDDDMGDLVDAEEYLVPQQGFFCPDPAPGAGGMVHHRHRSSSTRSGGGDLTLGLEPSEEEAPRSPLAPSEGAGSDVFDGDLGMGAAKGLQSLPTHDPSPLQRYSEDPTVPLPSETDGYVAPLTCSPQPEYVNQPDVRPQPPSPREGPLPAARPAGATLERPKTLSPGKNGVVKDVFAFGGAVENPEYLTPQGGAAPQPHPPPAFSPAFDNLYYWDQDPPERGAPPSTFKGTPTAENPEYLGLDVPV
How it was run: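 In-cell Western in NIH 3T3 cells carrying ErbB2 exon 20 YVMA insertion, with no ligand stimulation. One hour compound exposure at 37 °C before fixation and anti-pY1196 plus GAPDH staining with dual-wavelength fluorescence. IC50 derived after GAPDH normalization.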

EGFR = EGFR (Homo sapiens (Human), UniProt P00533); test: ErbB enzyme assay (CisBio HTRF KinEASE-TK), Assay 3; format: biochemical
EGFR, sequence (P00533 25-1210): as the sequence (P00533 25-1210) above
How it was run: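 HTRF dual-wavelength read after 1 h detection; POC normalised to DMSO (100) and pre-quenched (0) controls, IC50 where 4-parameter curve crosses 50 POC. Reaction: 250 nM TK-substrate biotin, 1 mM ATP, pH 7.4 HEPES buffer with MgCl2, 30 min, 22 °C.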

ErbB2 WT, sequence (P04626 23-1255): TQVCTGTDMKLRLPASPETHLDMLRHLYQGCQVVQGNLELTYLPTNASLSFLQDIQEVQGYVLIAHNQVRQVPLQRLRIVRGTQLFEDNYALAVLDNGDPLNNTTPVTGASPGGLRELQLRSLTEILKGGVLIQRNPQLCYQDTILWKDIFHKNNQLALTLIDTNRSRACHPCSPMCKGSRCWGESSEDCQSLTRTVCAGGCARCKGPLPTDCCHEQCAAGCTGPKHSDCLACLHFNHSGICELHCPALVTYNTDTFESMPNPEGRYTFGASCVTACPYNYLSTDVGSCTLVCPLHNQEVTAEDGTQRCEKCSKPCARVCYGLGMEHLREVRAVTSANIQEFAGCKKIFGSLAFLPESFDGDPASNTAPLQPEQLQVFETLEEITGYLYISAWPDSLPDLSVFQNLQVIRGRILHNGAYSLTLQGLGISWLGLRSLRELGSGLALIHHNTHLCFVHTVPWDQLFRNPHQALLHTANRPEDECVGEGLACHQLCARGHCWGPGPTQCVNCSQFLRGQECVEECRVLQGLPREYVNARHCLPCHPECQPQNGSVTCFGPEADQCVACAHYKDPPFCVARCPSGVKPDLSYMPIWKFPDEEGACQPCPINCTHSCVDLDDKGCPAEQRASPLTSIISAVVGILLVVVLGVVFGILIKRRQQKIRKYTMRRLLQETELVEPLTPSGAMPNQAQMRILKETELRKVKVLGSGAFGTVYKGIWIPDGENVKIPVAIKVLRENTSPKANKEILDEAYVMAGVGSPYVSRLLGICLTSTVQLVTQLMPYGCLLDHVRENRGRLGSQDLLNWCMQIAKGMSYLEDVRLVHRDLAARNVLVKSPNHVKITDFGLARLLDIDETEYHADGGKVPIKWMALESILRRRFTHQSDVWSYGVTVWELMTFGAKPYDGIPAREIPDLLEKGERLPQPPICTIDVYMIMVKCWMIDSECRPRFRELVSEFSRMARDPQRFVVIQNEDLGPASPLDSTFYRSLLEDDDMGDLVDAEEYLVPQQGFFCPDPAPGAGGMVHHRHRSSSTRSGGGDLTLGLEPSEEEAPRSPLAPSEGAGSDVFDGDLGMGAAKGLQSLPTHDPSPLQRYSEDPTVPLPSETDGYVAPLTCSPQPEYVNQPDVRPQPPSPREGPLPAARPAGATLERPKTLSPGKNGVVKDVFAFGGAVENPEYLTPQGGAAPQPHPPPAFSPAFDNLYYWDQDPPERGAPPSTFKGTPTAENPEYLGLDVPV

| Compound | IC50 (ErbB2 WT) [nM] | IC50 (EGFR wild type (EGFR WT)) [nM] | IC50 [1] [nM] | IC50 [2] [nM] | IC50 (EGFR) [nM] |
| --- | --- | --- | --- | --- | --- |
| Cn1cnc2cc(Oc3ccc(Nc4ncnc5cnc(N6CCOC(C)(C)C6)nc45)cc3Cl)ccc21 [Example 448] | 143 | ≥ 5000 | 75.9 | 40.8 | ≥ 10000 |
| Clc1cc(Nc2ncnc3cnc(N4CCOC5(CC5)C4)nc23)ccc1Oc1ccn2ncnc2c1 [Example 398] | 36.5 | ≥ 5000 | 22.1 | 70.5 | 7770 |
| Cc1cc(Nc2ncnc3cnc(N4CCC5(CCOC5)C4)nc23)ccc1Oc1ccc2c(c1)ncn2C (stereo not drawn) [Example 15, N-(3-methyl-4-((1-methyl-1H-benzo[d]imidazol-5-yl)oxy)phenyl)-6-(2-oxa-7-azaspiro[4.4]nonan-7-yl)pyrimido[5,4-d]pyrimidin-4-amine] | 51.1 | ≥ 5000 | 21.4 | 23.4 | ≥ 10000 |
| Clc1cc(Nc2ncnc3cnc(N4C[C@@H]5[C@H](C4)[C@H]4CC[C@@H]5O4)nc23)ccc1Oc1ccn2ncnc2c1 [Example 351] | 58.4 | ≥ 5000 | 30.8 | 150 | ≥ 10000 |
| Cc1cc(Nc2ncnc3cnc(N4CCC4)nc23)ccc1Oc1ccn2ncnc2c1 [Example 379] | 82.1 | ≥ 5000 | 25.7 | 356 | ≥ 10000 |
| O[C@@H]1CN(c2ncc3ncnc(Nc4ccc(Oc5ccn6ncnc6c5)c(Cl)c4)c3n2)CC1(F)F [Example 323] | 75.4 | ≥ 5000 | 12.2 | 59.9 | 9720 |
| CO[C@@H]1CCN(c2ncc3ncnc(Nc4ccc(Oc5ccn6ncnc6c5)c(C)c4)c3n2)C1 [Example 395] | 57.6 | ≥ 5000 | 24.6 | 898 | ≥ 10000 |
| C[C@H]1CN(c2ncc3ncnc(Nc4ccc(Oc5ccn6ncnc6c5)c(Cl)c4)c3n2)CCO1 [Example 327] | 32.1 | ≥ 5000 | 20.8 | 105 | 3820 |
| COC[C@H](C)Nc1ncc2ncnc(Nc3ccc(Oc4ccc5c(c4)ncn5C)c(C)c3)c2n1 [Example 62, (S)—N2-(1-methoxypropan-2-yl)-N8-(3-methyl-4-((1-methyl-1H-benzo[d]imidazol-5-yl)oxy)phenyl)pyrimido[5,4-d]pyrimidine-2,8-diamine] | 112 | ≥ 5000 | 39.8 | 27.1 | ≥ 10000 |
| Cc1cc(Nc2ncnc3cnc(N4CCCC4=O)nc23)ccc1Oc1ccn2ncnc2c1 [Example 137, 1-(8-((4-([1,2,4]triazolo[1,5-a]pyridin-7-yloxy)-3-methylphenyl)amino)pyrimido[5,4-d]pyrimidin-2-yl)pyrrolidin-2-one] | 166 | ≥ 5000 | 97.7 | 1080 | ≥ 10000 |
| Cc1c(Oc2ccn3ncnc3c2)ccc(Nc2ncnc3cnc(N4CC[C@@](C)(O)C4)nc23)c1F [Example 308] | 28.8 | ≥ 5000 | 15.1 | 492 | ≥ 10000 |
| Cc1cc(Nc2ncnc3cnc(N4CCP(C)(=O)CC4)nc23)ccc1Oc1ccc2c(c1)ncn2C [Example 463] | 275 | ≥ 5000 | 71.3 | 662 | ≥ 10000 |
| Cc1cc(Nc2ncnc3cnc(N4CC5(CCN(C)C5=O)C4)nc23)ccc1Oc1ccc2c(c1)ncn2C [Example 425] | 495 | ≥ 5000 | 68.1 | 185 | ≥ 10000 |
| Cc1c(Oc2ccn3ncnc3c2)ccc(Nc2ncnc3cnc(N4CC[C@](C)(O)C4)nc23)c1F [Example 307] | 54.3 | ≥ 5000 | 28.3 | 1150 | ≥ 10000 |
| Cc1cc(Nc2ncnc3cnc(N4CCC[C@@H]4C(C)(C)O)nc23)ccc1Oc1ccc2c(c1)ncn2C [Example 371] | 492 | ≥ 5000 | 67 | 127 | ≥ 10000 |
| Cc1cc(Nc2ncnc3cnc(N=S4(=O)CCOCC4)nc23)ccc1Oc1ccc2c(c1)ncn2C [Example 138, 4-((8-((3-methyl-4-((1-methyl-1H-benzo[d]imidazol-5-yl)oxy)phenyl)amino)pyrimido[5,4-d]pyrimidin-2-yl)imino)-1,4λ^6-oxathiane 4-oxide] | 33.6 | ≥ 5000 | 32.2 | 58.2 | 4910 |
| Cc1cnc(-c2ncc3ncnc(Nc4ccc(Oc5ccc6c(c5)ncn6C)c(C)c4)c3n2)o1 [Example 231] | 274 | ≥ 5000 | 115 | 39.2 | ≥ 10000 |

| Compound | IC50 (ErbB2 WT) [nM] | IC50 (EGFR wild type (EGFR WT)) [nM] | IC50 [1] [nM] | IC50 [2] [nM] | IC50 (EGFR) [nM] |
| --- | --- | --- | --- | --- | --- |
| Cc1cc(Nc2ncnc3cnc(N(C)[C@@H]4CN(C)C[C@@H]4F)nc23)ccc1Oc1ccc2c(c1)ncn2C [Example 305] | 20.3 | ≥ 5000 | 14.1 | 10.8 | 1860 |
| Cn1cnc2cc(Oc3ccc(Nc4ncnc5cnc(N6CCOC7(CC7)C6)nc45)cc3Cl)ccc21 [Example 449] | 152 | ≥ 5000 | 157 | 6.2 | ≥ 10000 |
| C[C@H]1CN(c2ncc3ncnc(Nc4ccc(Oc5ccc6c(c5)ncn6C)c(Cl)c4)c3n2)CCO1 [Example 450] | 55 | ≥ 5000 | 26.1 | 13.4 | 4010 |
| CCOc1ncc2ncnc(Nc3ccc(Oc4ccc5scnc5c4)c(C)c3)c2n1 [Example 46, N-(4-(benzo[d]thiazol-5-yloxy)-3-methylphenyl)-6-ethoxpyrimido[5,4-d]pyrimidin-4-amine 2,2,2-trifluoroacetate] | 760 | ≥ 5000 | 95.2 | 566 | 4250 |
| Cc1cc(Nc2ncnc3cnc(N(C)[C@@H]4CCOC4)nc23)ccc1Oc1ccn2ncnc2c1 [Example 427] | 43.1 | ≥ 5000 | 25 | 121 | 7940 |
| CN(c1ncc2ncnc(Nc3ccc(Oc4ccn5ncnc5c4)c(Cl)c3)c2n1)[C@@H]1CCCOC1 [Example 368] | 4.8 | ≥ 5000 | 3.6 | 17.4 | 303 |
| CC1(C)CN(c2ncc3ncnc(Nc4ccc(Oc5ccn6ncnc6c5)c(Cl)c4)c3n2)CC[C@@H]1O [Example 337] | 13.3 | ≥ 5000 | 17 | 70.3 | 2490 |
| Cn1cnc2cc(Oc3ccc(Nc4ncnc5cnc(N6C[C@H]7C[C@@H]6CO7)nc45)cc3Cl)ccc21 [Example 455] | 176 | ≥ 5000 | 48.7 | 58.2 | ≥ 10000 |
| Cc1c(Oc2ccn3ncnc3c2)ccc(Nc2ncnc3cnc(N(C)[C@H]4CN(C)C[C@H]4F)nc23)c1F [Example 320] | 36 | ≥ 5000 | 12.7 | 271 | 2340 |
| Cn1cnc2cc(Oc3ccc(Nc4ncnc5cnc(N6CCN[C@H](C(F)(F)F)C6)nc45)cc3Cl)ccc21 [Example 445] | 64.5 | ≥ 5000 | 65 | 44.2 | 4500 |
| Cc1cc(Nc2ncnc3cnc(N4C[C@H]5C[C@@H]4C[C@H]5O)nc23)ccc1Oc1ccc2c(c1)ncn2C [Example 459] | 36.6 | ≥ 5000 | 18.7 | 45.1 | ≥ 10000 |
| Cc1cc(Nc2ncnc3cnc(N4CC[C@]45CCOC5)nc23)ccc1Oc1ccc2c(c1)ncn2C (single isomer, unassigned) [Example 93b] | 11.6 | ≥ 5000 | 16.2 | 13.9 | 1350 |
| Cc1cc(Nc2ncnc3cnc(N4CC5(CCOC5)C4)nc23)ccc1Oc1ccn2ncnc2c1 [Example 373] | 307 | ≥ 5000 | 81.6 | 2480 | ≥ 10000 |
| Cc1c(Oc2ccc3c(c2)ncn3C)ccc(Nc2ncnc3cnc(N4C[C@H]5C[C@@H]4CO5)nc23)c1F [Example 457] | 83.9 | ≥ 5000 | 25.1 | 50.6 | 8240 |
| N#CC[C@H]1CCN(c2ncc3ncnc(Nc4ccc(Oc5ccn6ncnc6c5)c(Cl)c4)c3n2)C1 [Example 406] | 32.3 | ≥ 5000 | 16.6 | 63.6 | 8280 |
| Cc1cc(Nc2ncnc3cnc(O[C@H]4CN(C)CC[C@@H]4F)nc23)ccc1Oc1ccc2c(c1)ncn2C [Example 296] | 141 | ≥ 5000 | 59.6 | 68.2 | ≥ 10000 |
